Laboratory results from publication PMC7038240 (Antimicrobial Agents and Chemotherapy, 2020).
Where two headings read alike, the source gives them in different places.

What was measured:
[1] = tested on: P. aeruginosa clinical isolates; test: microbe, parasite or virus in culture; format: cell-based, Pseudomonas aeruginosa
Description: (§1) The antibacterial activity of the cephalosporins alone was included to ascertain the level of potentiation by the partnered BLI. BLIs were tested at a fixed concentration of 4 μg/ml in all combinations except cefepime-tazobactam, where tazobactam was fixed at a concentration of 8 μg/ml ([38]).
(§2) The in vitro antibacterial activity of the β-lactams alone or in combination with the BLIs was determined in cation-adjusted Mueller-Hinton broth (CAMHB) microdilution assays according to CLSI recommendations ([51]). […] The inocula for the broth microdilution assays were prepared by the broth culture method ([51]).

[2] = tested on: E. cloacae; test: microbe, parasite or virus in culture; format: cell-based
Description: as §1, §2

[3] = tested on: Enterobacterales clinical isolates; test: MIC distributions in panels of clinical isolates (MIC50, MIC90, % susceptible); format: cell-based
Description: as §1, §2

[4] = tested on: cefepime-nonsusceptible Enterobacterales isolates; parameters: method as in earlier work; settings: taniborbactam fixed at 4 μg/ml in combination; cited from earlier work
[5] = tested on: E. coli DH5α producing individual β-lactamases; test: Broth microdilution MIC in engineered strains (BLI fixed at 4 μg/ml); format: cell-based, Escherichia coli
Description: The spectrum of antibacterial activity of cefepime-taniborbactam and the breadth of inhibitory activity of this next-generation cyclic boronate BLI were assessed in 34 engineered E. coli strains each overproducing an individual β-lactamase and directly compared to those of the clinically approved agent ceftazidime-avibactam. In this manner, the antibacterial activity of the BL-BLI combinations relative to that of the partnered cephalosporins alone provided a quantitative measure of β-lactam potentiation that directly reflects the levels of inhibition of β-lactamase function achieved by addition of BLI. The BLI concentration was fixed at 4 μg/ml, as described in Materials and Methods.
The isogenic strains were used to establish a spectrum of inhibitory activity against 34 β-lactamases that were engineered into E. coli DH5α cells carrying chromosomal AmpC (ESC-1), a non-ESBL enzyme unable to hydrolyze these third- or fourth-generation cephalosporins. […]. The DNA fragments containing the promoter, the signal sequence, and each β-lactamase-coding gene were synthesized and cloned into pTwist Chlor High Copy in DH5α at Twist Bioscience. The individual expression plasmids along with their GenBank accession numbers are listed in Table S2 in the supplemental material and below. The protein sequences of β-lactamases were obtained from the Beta-Lactamase DataBase (www.bldb.eu) ([47]). Expression of the β-lactamases was confirmed by verifying decreased susceptibility to example test antibiotics that are known substrates of the enzymes. E. coli DH5α carrying pTU501, which expressed only the TEM-1 signal sequence from the bla promoter, was used as a control. The plasmid sequences are available through GenBank (Table S2).
The in vitro antibacterial activity of the β-lactams alone or in combination with the BLIs was determined in cation-adjusted Mueller-Hinton broth (CAMHB) microdilution assays according to CLSI recommendations ([51]). […]. The inocula for the broth microdilution assays were prepared by the broth culture method ([51]). […]

[6] = Wild-type, basal level Class C and OprD downregulation with RND efflux upregulation (n=14)
[7] = Enterobacter cloacae, strain 20, p99 AmpC/CTX-M-27/SHV-12/ACT-2/TEM-135, read-out: MIC
[8] = Enterobacter cloacae, strain 116723, p99 AmpC/TEM-1/CTX-M-3, read-out: MIC
[9] = Enterobacter cloacae, strain 138212, p99 AmpC/SHV-71/TEM-1, read-out: MIC
[10] = Enterobacter cloacae, strain 874381, CTX-M-15, read-out: MIC
[11] = Enterobacter cloacae, strain 875134, TEM-1/CTX-M-3/DHA-1, read-out: MIC
[12] = Enterobacter cloacae, strain 891849, TEM-1, read-out: MIC
[13] = Enterobacter cloacae, strain 920937, VIM-1, read-out: MIC
[14] = Enterobacter cloacae, strain 937223, SHV-12/CTX-M-9/ACT-7, read-out: MIC
[15] = Enterobacter cloacae, strain 938772, TEM-OSBL/CTX-M-15/ACT-30, read-out: MIC
[16] = Enterobacter cloacae, strain 976004, OXA-48, read-out: MIC
[17] = Enterobacter cloacae, strain 1249072, TEM-OSBL(b)/VIM-1, read-out: MIC
[18] = Enterobacter cloacae, strain 1365477, TEM-OSBL(b)/VIM-1, read-out: MIC
[19] = Escherichia coli, ACT-17 (class C)
[20] = Escherichia coli, ACT-C189 (P99 AmpC) (class C)
[21] = Escherichia coli, CMY-2 (class C)
[22] = Escherichia coli, CTX-M-2 (class A)
[23] = Escherichia coli, CTX-M-15 (class A)
[24] = Escherichia coli, GES-5 (class A)
[25] = Escherichia coli, GIM-1 (class B)
[26] = Escherichia coli, IMP-1 (class B)
[27] = Escherichia coli, KPC-2 (class A)
[28] = Escherichia coli, KPC-3(A177E/D179Y) (class A)
[29] = Escherichia coli, KPC-3(D179Y) (class A)
[30] = Escherichia coli, KPC-3(D179Y/T243M) (class A)
[31] = Escherichia coli, KPC-3(T243A) (class A)
[32] = Escherichia coli, KPC-3(V240G) (class A)
[33] = Escherichia coli, KPC-3 (class A)
[34] = Escherichia coli, NDM-1 (class B)
[35] = Escherichia coli, NDM-5 (class B)
[36] = Escherichia coli, NDM-7 (class B)
[37] = Escherichia coli, OXA-48 (class D)
[38] = Escherichia coli, OXA-162 (class D)
[39] = Escherichia coli, OXA-163 (class D)
[40] = Escherichia coli, OXA-181 (class D)
[41] = Escherichia coli, OXA-232 (class D)
[42] = Escherichia coli, PER-1 (class A)
[43] = Escherichia coli, PER-2 (class A)
[44] = Escherichia coli, SHV-5 (class A)
[45] = Escherichia coli, SPM-1 (class B)
[46] = Escherichia coli, TEM-10 (class A)
[47] = Escherichia coli, TEM-24 (class A)
[48] = Escherichia coli, TEM-72 (class A)
[49] = Escherichia coli, VEB-9 (class A)
[50] = Escherichia coli, VIM-1 (class B)
[51] = Escherichia coli, VIM-2 (class B)
[52] = Escherichia coli, VIM-4 (class B)
[53] = Escherichia coli, Vector control

In the case of `Cn1c(N)c(NC(=O)NCCN)c[n+]1CC1=C(C(=O)O)N2C(=O)[C@@H](NC(=O)/C(=N\OC(C)(C)C(=O)[O-])c3nsc(N)n3)[C@H]2SC1` [TOL], the “% Susceptible isolates” value ([1]; GES/KPC/VIM carbapenemase producing (n = 17)) was 0%, the “% Susceptible isolates” value ([1]; PDC variants (n = 10)) was 0% and the “% Susceptible isolates” value [1, 6] was 85.7%. The MIC [2, 7] was 32 µg/mL, the MIC [2, 8] was 32 µg/mL and the MIC [2, 9] was 32 µg/mL. The MIC ([2]; Enterobacter cloacae, strain 847426, KPC, read-out: MIC) was ≥ 256 µg/mL, the MIC [2, 10] was ≥ 256 µg/mL and the MIC [2, 11] was 64 µg/mL. For the same molecule, the MIC [2, 12] was 32 µg/mL, the MIC [2, 13] was ≥ 256 µg/mL and the MIC [2, 14] was 32 µg/mL. For the same molecule, the MIC [2, 15] was 128 µg/mL, the MIC [2, 16] was ≥ 256 µg/mL and the MIC [2, 17] was ≥ 256 µg/mL. For the same molecule, the MIC [2, 18] was ≥ 256 µg/mL, the MIC ([2]; Enterobacter cloacae, strain CDC-0053, KPC-3/TEM-1, read-out: MIC) was 128 µg/mL and the MIC ([2]; Enterobacter cloacae, strain CDC-0163, KPC/CTX-M-1/ACT/MIR, read-out: MIC) was 128 µg/mL. For the same molecule, the “% Susceptible isolates” value ([3]; ESBL (n = 20)) was 0%, the “% Susceptible isolates” value ([3]; KPC (n = 20)) was 0% and the “% Susceptible isolates” value ([3]; MBL (n = 20)) was 0%. For the same molecule, the “% Susceptible isolates” value ([3]; Mixed Class A and C (n = 22)) was 0% and the “% Susceptible isolates” value ([3]; OXA-48/48-like (n = 20)) was 5%.
For `CO/N=C(\C(=O)N[C@@H]1C(=O)N2C(C(=O)[O-])=C(C[N+]3(C)CCCC3)CS[C@H]12)c1csc(N)n1` [FEP], the MIC90 [4] is given as > 128 µg/mL, the MIC [5, 19] is given as 4 µg/mL and the MIC [5, 20] is given as 8 µg/mL. For the same molecule, the MIC [5, 21] was 2 µg/mL, the MIC [5, 22] was 128 µg/mL and the MIC [5, 23] was 128 µg/mL. The MIC [5, 24] was 4 µg/mL, the MIC [5, 25] was 4 µg/mL and the MIC [5, 26] was 64 µg/mL. It also gave an MIC [5, 27] of 64 µg/mL, an MIC [5, 28] of 16 µg/mL and an MIC [5, 29] of 32 µg/mL. It also gave an MIC [5, 30] of 16 µg/mL, an MIC [5, 31] of 64 µg/mL and an MIC [5, 32] of 256 µg/mL. It also gave an MIC [5, 33] of 128 µg/mL, an MIC [5, 34] of 256 µg/mL and an MIC [5, 35] of 512 µg/mL. For the same molecule, the MIC [5, 36] was 512 µg/mL, the MIC [5, 37] was 2 µg/mL and the MIC [5, 38] was 8 µg/mL. For the same molecule, the MIC [5, 39] was 128 µg/mL, the MIC [5, 40] was 2 µg/mL and the MIC [5, 41] was 2 µg/mL. For the same molecule, the MIC [5, 42] was 512 µg/mL, the MIC [5, 43] was 256 µg/mL and the MIC [5, 44] was 128 µg/mL. It also gave an MIC [5, 45] of 128 µg/mL, an MIC [5, 46] of 8 µg/mL and an MIC [5, 47] of 2 µg/mL. For the same molecule, the MIC [5, 48] was 32 µg/mL, the MIC [5, 49] was 128 µg/mL and the MIC [5, 50] was 128 µg/mL. For the same molecule, the MIC [5, 51] was 16 µg/mL, the MIC [5, 52] was 32 µg/mL and the MIC [5, 53] was 0.12 µg/mL.
For `CC(C)(O/N=C(\C(=O)N[C@@H]1C(=O)N2C(C(=O)[O-])=C(C[n+]3ccccc3)CS[C@H]12)c1csc(N)n1)C(=O)O` [CAZ], the “% Susceptible isolates” value [1] was 0%, the “% Susceptible isolates” value ([1]; PDC variants (n = 10)) was 0% and the “% Susceptible isolates” value [1, 6] was 35.7%. For the same molecule, the MIC [2] was 64 µg/mL, the MIC [2, 7] was ≥ 256 µg/mL and the MIC [2, 8] was 128 µg/mL. The MIC [2, 9] was 128 µg/mL, the MIC [2, 10] was ≥ 256 µg/mL and the MIC [2, 11] was 64 µg/mL. The MIC [2, 12] was 128 µg/mL, the MIC [2, 13] was ≥ 256 µg/mL and the MIC [2, 14] was ≥ 256 µg/mL. For the same molecule, the MIC [2, 15] was 128 µg/mL, the MIC [2, 16] was 128 µg/mL and the MIC [2, 17] was ≥ 256 µg/mL. The MIC [2, 18] was ≥ 256 µg/mL, the “% Susceptible isolates” value ([3]; ESBL (n = 20)) was 15% and the “% Susceptible isolates” value ([3]; KPC (n = 20)) was 0%. The “% Susceptible isolates” value ([3]; MBL (n = 20)) was 0%, the “% Susceptible isolates” value ([3]; Mixed Class A and C (n = 22)) was 9.1% and the “% Susceptible isolates” value ([3]; OXA-48/48-like (n = 20)) was 15%. It also gave an MIC [5, 19] of 8 µg/mL, an MIC [5, 20] of 256 µg/mL and an MIC [5, 21] of 512 µg/mL. For the same molecule, the MIC [5, 22] was 32 µg/mL, the MIC [5, 23] was 128 µg/mL and the MIC [5, 24] was 64 µg/mL. For the same molecule, the MIC [5, 25] was > 128 µg/mL, the MIC [5, 26] was 1020 µg/mL and the MIC [5, 27] was 64 µg/mL. The MIC [5, 28] was 1020 µg/mL, the MIC [5, 29] was 1020 µg/mL and the MIC [5, 30] was 1020 µg/mL. The MIC [5, 31] was 256 µg/mL, the MIC [5, 32] was 1020 µg/mL and the MIC [5, 33] was 512 µg/mL. For the same molecule, the MIC [5, 34] was 1020 µg/mL, the MIC [5, 35] was > 1020 µg/mL and the MIC [5, 36] was > 1020 µg/mL. For the same molecule, the MIC [5, 37] was 1 µg/mL, the MIC [5, 38] was 2 µg/mL and the MIC [5, 39] was 256 µg/mL. For the same molecule, the MIC [5, 40] was 1 µg/mL, the MIC [5, 41] was 1 µg/mL and the MIC [5, 42] was 1020 µg/mL. The MIC [5, 43] was 1020 µg/mL, the MIC [5, 44] was 1020 µg/mL and the MIC [5, 45] was 1020 µg/mL. It also gave an MIC [5, 46] of 1020 µg/mL, an MIC [5, 47] of 1020 µg/mL and an MIC [5, 48] of 1020 µg/mL. For the same molecule, the MIC [5, 49] was 1020 µg/mL, the MIC [5, 50] was 1020 µg/mL and the MIC [5, 51] was 128 µg/mL. It also gave an MIC [5, 52] of 256 µg/mL, an MIC [5, 53] of 0.25 µg/mL and an MIC ([5]; Vector control) of 0.5 µg/mL.
